Data: US20090143452A1, “Use of prochloraz for wood protection” (priority 2005, published 2009)
Entries after “also recorded” stand apart in the source; their conditions may differ.

How the values were obtained:
[1] = system: soft-rot fungi; test: Activity against soft rot, test based on ENV 807 (reduction in mass of treated Pinus sylvestris wood samples); details: for Activity against soft-rot fungi in the test according to ENV 807 (in words): 0.3% active compound where stated; for Reduction in mass in % (mean): Pinus sylvestris specimens vacuum drenched with 0.3% active compound solution, ageing per EN 84, 20 weeks incubation
Description: The activity of prochloraz and of a copper/chromate preparation and tebuconazole, 3-iodo-2-propynyl butylcarbarbamate (IPBC) and imazalil was determined in a test based on ENV 807 (12/2001). To this end, test specimens of the wood type Pinus sylvestris of a size of 40×15×4 mm were vacuum drenched with 0.3 and 0.4% strength active compound solutions and conditioned for 14 days. This was followed by accelerated ageing according to EN 84.
Subsequently, the wood samples were placed on a malt agar medium according to EN 113 and inoculated with a spore suspension according to ENV 807. After 20 weeks of incubation, the reduction in mass of the wood samples treated was determined.

[2] = system: blueing fungi; details: J. A. Drysdale et al., New Zealand Journal of Forestry Science 1982; cited from earlier work

CCCCNC(=O)OCC#CI [IPBC, 3-iodo-2-propynyl butylcarbarbamate]
Activity against soft-rot fungi in the test according to ENV 807 (in words) [1]: entirely insufficient activity; also recorded: insufficiently active
Reduction in mass in % (mean) [1]: >4%

CCCN(CCOc1c(Cl)cc(Cl)cc1Cl)C(=O)n1ccnc1 [Prochloraz, N-propyl-N-[2-(2,4,6-trichlorophenoxy)ethyl]imidazole-1-carboxamide]
Activity against soft-rot fungi in the test according to ENV 807 (in words) [1]: broad activity
Activity against soft-rot fungi in the test according to ENV 807 (in words) ([1]; listed as prochloraz): excellent activity; also recorded: effect comparable to that of the 0.4% strength copper/chromium standard
Reduction in mass in % (mean) [1]: <2%
Activity against blueing fungi (in words) [2]: insufficiently active

CC(C)(C)C(O)(CCc1ccc(Cl)cc1)Cn1cncn1 (stereo not shown) [Tebuconazole, tebuconazole]
Activity against soft-rot fungi in the test according to ENV 807 (in words) [1]: insufficiently active
Reduction in mass in % (mean) [1]: >4%

C=CCOC(Cn1ccnc1)c1ccc(Cl)cc1Cl (stereo not shown) [Imazalil, imazalil]
Activity against soft-rot fungi in the test according to ENV 807 (in words) [1]: entirely insufficient activity; also recorded: insufficiently active
Reduction in mass in % (mean) [1]: >4%
